The text below walks through data of patent US7687603B2, “Guanidinium delivery carriers” (priority 2005, dated 2010).

Data set [1] is described as follows: Body weight changes after intra-tumor administration. It counts as in vivo, nu/nu athymic mice. The settings on record: 21 days after intra-tumor administration. On the procedure:
(§1) Male nu/nu athymic mice (6-7 weeks old; 22-25 g; available from Charles River Laboratories) were inoculated subcutaneously on the right flank with 1.1×10^6 Hela and PC-3 cells to obtain xenografs of human PC-3 prostate cancer.
(§2) Approximately 4 days after inoculation, the four groups of five mice were administered a solution containing saline, doxorubicin, PTD, or DOX-PTD (e.g., 0.103×10^−4 mol) via intra-tumor injection or intravenously. The solution was administered once a week until the total volume administered equaled ˜50 μL/mouse. Size measurements of the tumor and the body weight of the mice were taken every other day. A saline solution was used as a control.

The subject of data set [2] is B16F0 cells. The experiment in a line: IC50% study. It counts as cell-based. On the procedure:
B16F0 cells (obtained from American Type Culture Collection, ATCC) were split into 96 well plates and incubated at 37° C. under 5% CO2. After 24 hours, BMPC-Pt was added to each well. The fluorescence of each well was measured using two wavelength filters (450 nm and 528 nm) before and several times after BMPC-Pt was added (24, 48, and 72 hours). Using measurements, the fluorescence intensity net increase ratio was calculated and the results are summarized in Table 3 and shown in FIGS. 19 and 20.

Data set [3] concerns B16F0 cells. The experiment in a line: IC50% study. It is filed as cell-based. The settings on record: 96 hours.
In data set [4] the test system is Hela 705 cells. The data set is described as follows: Transduction assay (in vitro), fluorescence microscope. It is filed as cell-based. The settings on record: 30 min at 37° C., Streptavidin-FITC, FIG. 4. The protocol: The transduction efficiency of compound 9 from Example 1 and compound 11 from Example 2 were analyzed. Hela 705 cells were seeded at 1.5×10^4/well in 96-well plate and cultured overnight (about 70% confluenced). The media was discarded and the cells rinsed with PBS. Biotin-labeled test compounds (dissolved in PBS, pH: 7.4) were applied to culture(s) and incubated for 30 min at 37° C. The media was carefully discarded and the cells rinsed with PBS. The cells were fixed in freshly prepared 4% paraformaldehyde for 10 min at 4° C. The cells were rinsed and incubated with a blocking reagent (10% BSA containing 0.5% Triton X-100 in PBS) for 30 min at 37° C. The cells were again rinsed with PBS and incubated with Streptavidin-FITC for 30 min at room temperature. The cells were then rinsed with PBS and observed under fluorescence microscope.
The transduction activity of the disulfide linked HA compounds 13 and 14 from Example 4 were tested on Hela 705 cells following the procedure as mentioned above. FITC conjugated anti-HA antibody was applied for visualization.

In data set [5] the test system is Mouse skin tissue. The data set is described as follows: In vivo transdermal delivery assay. The settings on record: nude mice skin, 100 μl of 1 mM in PBS, 30 min, FIG. 9. The protocol: Compounds 9 and 11 from Examples 1 and 2 were tested in vivo. In vivo evaluation was conducted with a transdermal delivery assay on nude mice (NU/NU ♀). Nude mice (female, 6 weeks old, from Charles River) were anesthetized with 50 μl cocktail of Ketaset 25 mg/ml, Xylazine 5 mg/ml (i.m.). The skin was wiped with saline and a 100 μl solution of the test compounds (1 mM in PBS) was applied. A plastic ring was used to isolate the test solution and vaseline was rubbed outside of the ring. After 30 min incubation, the animal was sacrificed under deep anesthesia and the skin was removed. Mouse skin tissue was immediately embedded in OTC medium, cut into 5 μm on a cryostat and collected on slides, and stored at −70° C. The tissue was fixed in freshly prepared 4% paraformaldehyde in PBS for 10 min at 4° C. The tissue was then rinsed in PBS 2×5 min and incubated with 10% BSA containing 0.5% Triton X-100 in PBS for 30 min at 37° C. The samples were incubated with Streptavidin-FITC (diluted in 1% BSA containing 0.05% Triton X-100 in PBS) overnight at 4° C. […] The samples were rinsed twice in PBS 2×5 min and tap water and mounted with anti-fading mounting medium and observed under fluorescence microscope or confocal imaging analysis.

The test system of data set [6] is PC-3 cells. The data set is described as follows: Cytotoxicity assay, live/dead cell staining. It counts as cell-based. On the procedure: Prostate cancer cell lines (PC-3 cells) were maintained in 12-F medium containing 10% fetal bovine serum, 100 units/mL penicillin and 100 μg/mL streptomycin at 37° C. under 5% CO2 and 100% humid condition. To avoid confluency due to the short doubling time (˜20 hrs), the cells were split every 3-4 days.
The PC-3 cells were plated in 6-well tissue culture plates (5×10^5 cells/well) and incubated overnight in 12-F medium with 10% FBS. For each well, an aliquot of 200 μl Doxorubicin-protein transduction domain (DOX-PTD) solution at same mole concentration (0.2 mg/per well) was added. The cells were then incubated at 37° C. in 5% CO2 for 2 hrs.
After incubation, the live and dead cells were counted using cell staining analysis according to the protocol provided by the manufacturer. The dead cells stain red while the live cells stain green. The green and red fluorescent signals from the cells were observed under a fluorescent microscope (Olympus, filter 570 nm-605). The percentage of live cells in the cultures was determined from counts of three fields.

Data set [7] has as its system xenografs of human PC-3 prostate cancer. The experiment in a line: DOX-PTD anti-tumor treatment in vivo study, tumor size. Also noted: species or system nu/nu athymic mice. The settings on record: intra-tumor administration, Dosedox=0.2 mg/kg, FIGS. 14 and 15. The protocol:
as §1, §2

The test system of data set [8] is mammalian cells. The data set is described as follows: MTT cytotoxicity study. It counts as cell-based. The protocol:
(§3) Cytotoxicity of PTD carriers were evaluated in mammalian cells using 3-[4,5 dimethylthiazol-2-yl]-2,5-diphenyltetrazolium bromide (MTT). After inducing cytotoxicity (˜4 hrs) by routine methods, 10 μl of MTT solution (5.0 mg/ml in PBS, Sigma) was added to each well, and incubated at 37° C. for 3 hrs. The medium was then removed and 200 μl dimethyl sulfoxide (DMSO) was added into each well to dissolve the formazan crystals produced by living cells. The absorbance of the solution was measured at 570 nm. Cell viabilities were calculated using the equation: Viability (%)={Abs570 (sample)/Abs570 control}. A control reaction was run under the same conditions except for the addition of Dox-PTD.

Data set [9] is described as follows: MTT cytotoxicity study. It counts as cell-based. The settings on record: mammalian cells, FIG. 13, read-out: cells survived (viability). The protocol:
as §3

Numbered stars: 1 amine (or outer) side, 2 acyl side, 3 side chain; on linkers, the order of the positions; unused ones are H or OH. Side chains are listed from the residue outwards. Peptide text beside a SMILES is read from it. * marks the point of attachment. Doxorubicin(3'-N) = COc1cccc2c1C(=O)c1c(O)c3c(c(O)c1C2=O)C[C@@](O)(C(=O)CO)C[C@@H]3O[C@H]1C[C@H](N*)[C@H](O)[C@H](C)O1; Suc = O=C(CCC(=O)[*:2])[*:1]

As to `COc1cccc2c1C(=O)c1c(O)c3c(c(O)c1C2=O)C[C@@](O)(C(=O)CO)C[C@@H]3O[C@H]1C[C@H](N)[C@H](O)[C@H](C)O1` [DOX, doxorubicin, reference compound], in [1], the “body weight difference between groups” value is reported as “no significant difference”.
As for `N.N.O=C([O-])C1(C(=O)[O-])CCC1.[Pt+2]` [Carboplatin, reference compound], the IC50 in data set [2] (24 hours) was 110 µM; in data set [2] (48 hours), 36.5 µM; in data set [2] (72 hours), 24.5 µM; in [3], 4.5 µM.
In the case of `N=C(N)NCCCC(N)C(=O)NC(CCCNC(=N)N)C(=O)NC(CCCNC(=N)N)C(=O)NCCCCC(NC(=O)C(CCCNC(=N)N)NC(=O)C(CCCNC(=N)N)NC(=O)C(N)CCCNC(=N)N)C(=O)NCCCCC(NC(=O)C(CCCNC(=N)N)NC(=O)C(CCCNC(=N)N)NC(=O)CCCC[C@@H]1SC[C@@H]2NC(=O)N[C@@H]21)C(N)=O` (some centres unmarked) [compound 11], the “transduction efficiency compared to vehicle (PBS)” value in [4] is recorded as “dramatic transduction efficiency”. The “transdermal delivery efficiency compared to vehicle (PBS)” value in data set [5] is on record as “dramatic transdermal delivery efficiency”.
Take `CC(=O)N[C@@H](CCCNC(=N)N)C(=O)N[C@@H](CCCNC(=N)N)C(=O)N[C@@H](CCCCNC(=O)[C@H](CCCNC(=N)N)NC(=O)[C@H](CCCNC(=N)N)NC(=O)CCC(=O)NC1CC(=O)[O][Pt]2([NH]C3CCCCC3[NH]2)[O]C1=O)C(=O)N[C@@H](CCCNC(=N)N)C(=O)N[C@@H](CCCNC(=N)N)C(=O)N[C@@H](CCCNC(=N)N)C(=O)N[C@@H](CCCNC(=N)N)C(N)=O` (some centres unmarked) [BMPC-Pt]: the IC50 is 128 µM in data set [2] (24 hours), 51.6 µM in data set [2] (48 hours), 22.3 µM in data set [2] (72 hours) and 12.5 µM in data set [3].
Regarding `COc1cccc2c1C(=O)c1c(O)c3c(c(O)c1C2=O)C[C@@](O)(C(=O)CO)C[C@@H]3O[C@H]1C[C@H](NC(=O)CCC(=O)N[C@@H](CCCNC(=N)N)C(=O)N[C@@H](CCCNC(=N)N)C(=O)NCCCC[C@H](NC(=O)[C@H](CCCNC(=N)N)NC(=O)[C@H](CCCNC(=N)N)NC(C)=O)C(=O)N[C@@H](CCCNC(=N)N)C(=O)N[C@@H](CCCNC(=N)N)C(=O)N[C@@H](CCCNC(=N)N)C(=O)N[C@@H](CCCNC(=N)N)C(N)=O)[C@H](O)[C@H](C)O1` [DOX-PTD] (Ac-RRK([Arg-Arg-Suc-Doxorubicin(3'-N)])RRRR-NH2), the “number of live cells” value in data set [6] (0.2 mg/per well, 2 hrs, FIGS. 11 and 12) is on record as “less than with Dox alone”. For the same molecule, the “penetration into the PC-3 cells” value in data set [6] (inferred from live cell counts) is “greater penetration into the PC-3 cells compared to Dox alone”. Moreover, the tumor size result in [7] was “increased in size less than the tumor injected with Dox alone”. In addition, the “body weight difference between groups” value in data set [1] is on record as “no significant difference”. Further, in [8], the cytotoxicity entry was “extremely high”. For the same molecule, the viability in [9] was under 40%.
